Experimental data published in patent publication US8158389B2, “Products and methods for in vivo secretion of monatin” (priority 2005, dated 2012).

Assays:
Format in all cases: cell-based, Escherichia coli
E. coli MG1655 = assay: Monatin excretion with 2.5 mM sodium decanoate, E. coli MG1655 strains with pUC19, marA or baeR (30, 72 h)
Description: The strain used for the experiment was E. coli MG1655: : aspC/proA/pProNde together with the marA gene from E. coli cloned into the pUC19 vector (GenBank/EMBL accession number L09137). The control strain was E. coli MG1655: : aspC/proA/pProNde along with the pUC19 vector. The marA gene was amplified from E. coli W3110 with PCR technology (known to one skilled in the art) using the primers E. coli MarASalIF-5′[…]3′ (SEQ ID NO. 24) and E. coli MarABamHIR-5′[…]3′ (SEQ ID NO. 25). For inoculum, the E. coli strains were grown overnight at 37° C. and 250 rpm in Luria-Bertani (“LB”) medium with 100 μg/mL ampicillin and 50 μg/mL kanamycin.
For the experimental treatments, Trp-1+glucose medium, a minimal medium that has been used for increased production of tryptophan in E. coli cells (Zeman, et al. Folia Microbiol. 35:200-204, (1990)), was prepared as follows. To 800 mL nanopure water the following reagents were added: 2 g (NH4)2SO4 and 13.6 g KH2PO4. The pH was adjusted to 7.0, the volume was increased to 948 mL, and the medium was autoclaved. Following sterilization, 0.2 g MgSO4.7H2O, 0.01 g CaCl2.2H2O, and 0.5 mg FeSO4.7H2O were added to the medium in a 1.8 mL volume followed by addition of 0.2 mL of Neidhardt's micronutrient solution. Neidhardt F. C., et al., “Culture medium for Enterobacteria,” J. Bacteriol. 119:736-746, (1974). Neidhardt's medium includes (per liter): 0.18 g (NH4)6(MO7)24.4H2O, 1.24 g H3BO3, 0.36 g CoCl2.6H2O, 0.12 g CuSO4 (anhydrous), 0.8 g MnCl2.4H2O, and 0.14 g ZnSO4.7H2O. A 50% glucose solution was prepared separately and sterile-filtered. Forty mL of glucose solution and 10 mL of 1 M 3-Morpholinopropanesulfonic acid (“MOPS”) buffer were added to the base medium (950 mL) for a 1 L final volume.
Conditions for the treatments included 250 rpm agitation throughout and 37° C. up to induction, then, 30° C. following induction. At an OD600 nm between 0.35-0.50, induction of the plasmid genes was initiated. At induction, 1.0 mM IPTG, 0.5% L-arabinose, 0.5 mM pyridoxine hydrochloride, and 0.2 mLs of Balch's vitamins were added. Additions of 10 g/L L-tryptophan, 10 g/L sodium pyruvate, 0.04 mM pyridoxal-5′-phosphate (“PLP”) and 0.2% Tween® 20 (polyoxyethylene 20-sorbitan monolaurate) were made 3.0 hours following induction. At 24 hours after inoculation, 10 g/L of sodium pyruvate was added to each flask again. Some treatments included 2.5 mM sodium decanoate addition at 3.0 hours following induction.
The strains used for the experiment were E. coli. MG1655 : : aspC/proA/pProNde in combination with either baeR or no insert in the pUC19 vector. The baeR gene was amplified from E. coli W3110 by using primers, E. coli baeRSalIF 5′[…]3′ (SEQ ID NO. 26) and E. coli baeRBamHIR 5′[…]3′ (SEQ ID NO. 27), which introduced SalI and BamHI sites at the end of the amplified fragment. The PCR fragment was cloned between the SalI and BamHI sites of the vector pUC19 (GenBank/EMBL accession number L09137). For inoculum, the E. coli strains were grown overnight at 37° C. and 250 rpm in Luria-Bertani (“LB”) medium with 100 μg/mL ampicillin and 50 μg/mL kanamycin.
For the experimental treatments, Trp-1+glucose medium, a minimal medium that has been used for increased production of tryptophan in E. coli cells (Zeman et al. Folia Microbiol. 35:200-204, (1990)), was prepared as follows. To 800 mL nanopure water the following reagents were added: 2 g (NE4)2SO4 and 13.6 g KH2PO4. The pH was adjusted to 7.0, the volume was increased to 948 mL, and the medium was autoclaved. Following sterilization, 0.2 g MgSO4.7H2O, 0.01 g CaCl2.2H2O, and 0.5 mg FeSO4.7H2O were a to the medium in a 1.8 mL volume followed by addition of 0.2 mL of Neidhardt's micronutrient solution. Neidhardt F. C., et al., “Culture medium for Enterobacteria,” J. Bacteriol. 119:736-746 (1974). Neidhardt's medium includes (per liter): 0.18 g (NH4)6(MO7)24.4H2l O, 1.24 g H3BO3, 0.36 g CoCl2.6H2O, 0.12 g CuSO4 (anhydrous), 0.8 g MnCl2.4H2O, and 0.14 g ZnSO4.7H2O. […]

E. coli BL21 DE3 = assay: Preliminary study: novobiocin tolerance after sodium decanoate addition; conditions: 2.5 mM sodium decanoate added to the medium
Description: This was taken as evidence that acrAB genes are induced with sodium decanoate addition and conferred resistance to novobiocin. Rosenberg, E. Y., et al., Molecular Microbiol. 48:1609-1619, (2003).

[1] = system: E. coli MG1655::aspCproApProNde (control); assay: AcrAB k.o. validation: growth (OD 600 nm) with novobiocin / sodium decanoate, control strain; conditions: sodium decanoate 2.5 mM; novobiocin 0 ppm
Procedure: Single chloramphenicol-resistant colonies were purified by restreaking on appropriate selective media and single colonies were tested by PCR as previously described for the BW25113 knockout strains, to verify the presence of the emrB and acrAB knockouts. The effects of the emrB and acrAB knockouts on the EmrAB and AcrAB transporter systems respectively were determined by assessing the phenotype of the transport mutants using appropriate antibiotics and comparison to wild type control microorganisms as shown in Table 3.1 and Table 3.2 below.

[2] = E. coli MG1655 AspC ProA pProNde del BaeR pUC19, n = 2
[3] = E. coli MG1655 AspC ProA pProNde del MarA pUC19, n = 2
[4] = E. coli MG1655 aspC proA pProNde del pUC19 (control), n = 2

## CCCCCCCCCC(=O)[O-].[Na+] [sodium decanoate]
E. coli MG1655; [2]
  Mean monatin per dry cell weight, 30 hours: 16.2 mg/g
  Mean monatin per dry cell weight, 72 hours: 66.8 mg/g
E. coli MG1655; [3]
  Mean monatin per dry cell weight, 30 hours: 8.5 mg/g
  Mean monatin per dry cell weight, 72 hours: 51.9 mg/g
E. coli MG1655; [4]
  Mean monatin per dry cell weight, 30 hours: 2.4 mg/g
  Mean monatin per dry cell weight, 72 hours: 2.7 mg/g
E. coli BL21 DE3
  tolerance to novobiocin: 80 to 160 µg/mL
[1]
  OD 600 nm at 19 hours: 1.396
